Laboratory results as given in US20110218103A1, “Fluoroalkyl-substituted 2-amidobenzimidazoles” (BAYER CROPSCIENCE AG, priority 2010, published 2011).

Tested on: Zea mays (ZEAMX)
Experiment: Cold stress test on crop plants, spray application in greenhouse, visual damage rating
Assay type: in vivo
Conditions: mean of three results
Procedure: Seeds of monocotyledonous and dicotyledonous crop plants were placed in sandy loam in wood-fiber pots, covered with soil and cultivated in a greenhouse under good growth conditions. The test plants were treated at the early leaf stage (BBCH10-BBCH13). To ensure uniform water supply before commencement of stress, the potted plants were supplied with the maximum amount of water immediately beforehand by dam irrigation and, after application, transferred in plastic inserts in order to prevent subsequent, excessively rapid drying. The inventive compounds, formulated in the form of wettable powders (WP), wettable granules (WG), suspension concentrates (SC) or emulsion concentrates (EC), were sprayed onto the green parts of the plants as an aqueous suspension at an equivalent water application rate of 600 l/ha with addition of 0.2% wetting agent (agrotin). Substance application was followed immediately by stress treatment of the plants (cold or drought stress). For cold stress treatment, the plants were kept under the following controlled conditions: “day”: 12 hours with illumination at 8° C. “night”: 12 hours without illumination at 1° C. The duration of the respective stress phases was guided mainly by the state of the untreated, stressed control plants and thus varies from crop to crop. It was ended (by re-irrigating or transfer to a greenhouse with good growth conditions) as soon as irreversible damage is observed on the untreated, stressed control plants. In the case of dicotyledonous crops, for example oilseed rape and soya, the duration of the drought stress phase was between 3 and 5 days, in the case of monocotyledonous crops, for example wheat, barley or corn, between 6 and 10 days. The duration of the cold stress phase varied between 12 and 14 days. The end of the stress phase was followed by an approx. 5-7-day recovery phase, during which the plants were once again kept under good growth conditions in a greenhouse. […] The intensity of damage was first assessed as a percentage (100%=plants have died, 0%=like control plants). […]

SMILES | EF (ZEAMX), efficacy = percentage reduction in the intensity of damage (5 g/ha) | EF (ZEAMX), efficacy = percentage reduction in the intensity of damage (25 g/ha)
NC(=O)c1cccc2[nH]c(C(F)(F)C(F)(F)F)nc12 [1-2, 2-(pentafluoroethyl)-1H-benzimidazole-4-carboxamide] | >5% | –
NC(=O)c1cccc2[nH]c(C(F)(F)C(F)(F)C(F)(F)F)nc12 [1-17] | – | >5%
